In publication PMC9851200, “Multiparameter phenotypic screening for endogenous TFEB and TFE3 translocation identifies novel chemical series modulating lysosome function” (Autophagy, 2022):
Where two headings read alike, the source gives them in different places.

What was measured:
[1] = system: SH-SY5Y cells; assay: AK (adenylate kinase) release ToxiLight cytotoxicity assay; conditions: PKIS2 primary screening; further: reference of the scale not given here
[2] = system: endogenous TFE3; assay: TFE3 nuclear translocation, immunocytochemistry high-content imaging; type: cell-based; conditions: PKIS2 primary screening
[3] = system: SH-SY5Y cells; further: reference of the scale not given here
[4] = system: endogenous TFEB; assay: TFEB nuclear translocation, immunocytochemistry high-content imaging; type: cell-based; conditions: PKIS2 primary screening
[5] = system: SH-SY5Y cells; assay: Nuclear count from microscopy images (cellular growth and toxicity); conditions: PKIS2 primary screening; further: reference of the scale not given here
[6] = PKIS2 primary screening, DQ Red BSA intensity
[7] = PKIS2 primary screening, DQ Red BSA spot count

Row | Compound | AK [1] | TFE3 % [2] [%] | DQ Intensity ([3]; PKIS2 primary screening) | DQ Spot ([3]; PKIS2 primary screening) | TFEB % [4] [%] | Nuclear Count [5] | DQ Intensity [3, 6] | DQ Spot [3, 7] | DQ Intensity [3] | DQ Spot [3]
1 | COc1nccc(-c2c(-c3ccc(F)cc3)ncn2CCCN2CCOCC2)n1 [UNC10225213A] | 78.43 | 16.14 | 119.56 | 105.70 | 5.79 | 107.77 | – | – | – | –
2 | Cc1occc1-c1nc(N)c(OC[C@@H](N)Cc2c[nH]c3ccccc23)cc1-c1cc2c(C)n[nH]c2cn1 [UNC10225217A] | 91.49 | 15.99 | 96.09 | 101.21 | 6.02 | 82.67 | – | – | – | –
3 | Fc1cc(Cl)ccc1Nc1ccnc2cc(-c3ccc(CN4CCCCC4)o3)ccc12 [UNC10225220A] | 82.41 | 18.00 | – | – | 3.77 | 76.92 | 113.72 | 129.26 | – | –
4 | Cc1ccc2c(-c3ccnc(Nc4ccc(C(F)(F)F)cc4)n3)cnn2n1 [UNC10225224A] | 79.85 | 15.88 | 85.12 | 93.95 | 10.89 | 89.44 | – | – | – | –
5 | Cc1c(Cn2c(C)c(C)n3c(=O)cc(N4CCOCC4)nc23)cccc1C(F)(F)F [UNC10225225A] | 106.72 | 8.46 | 84.00 | 96.71 | 3.43 | 111.32 | – | – | – | –
6 | CN(C)CCOc1ccc(-c2cc(-c3c[nH]nc3-c3ccccn3)ccn2)cc1 [UNC10225226A] | 93.65 | 7.10 | – | – | 11.71 | 49.06 | 136.49 | 114.20 | – | –
7 | Cc1ccc(C)c(NC(=O)Nc2ccc(C)c(-c3ccc(C(=O)Nc4ccncc4)cc3)c2)c1 [UNC10225228A] | 74.48 | 10.54 | 84.26 | 79.30 | 7.17 | 105.64 | – | – | – | –
8 | COCCNC(=O)c1ccc(-c2cc(C(=O)NC3CC3)cc(F)c2C)cc1 [UNC10225229A] | 73.51 | 7.62 | 100.76 | 101.89 | 15.26 | 111.58 | – | – | – | –
9 | O=C(c1ccc(-c2cc(-c3c[nH]nc3-c3ccccn3)ccn2)cc1)N1CCCC1 [UNC10225230A] | 75.56 | 11.53 | – | – | 9.58 | 86.33 | 81.19 | 99.92 | – | –
10 | O=c1cc(N2CCOCC2)nc2n(Cc3ccccc3F)ccn12 [UNC10225231A] | 121.63 | 8.12 | 110.36 | 111.39 | 4.37 | 97.25 | – | – | – | –
11 | O=C(Nc1cccc(-c2nn3ncccc3c2-c2ccnc(Nc3ccccc3)n2)c1)c1c(F)cccc1F [UNC10225232A] | 143.10 | 11.89 | 89.13 | 101.26 | 3.87 | 127.09 | – | – | – | –
12 | COc1cc2nccc(Nc3ccc(OCc4ccc(NC(C)=O)cc4)cc3)c2cc1OC.Cl [UNC10225233A] | 100.23 | 18.79 | – | – | 5.84 | 125.55 | 120.40 | 99.45 | – | –
13 | C[C@@H](Oc1cc(-n2cnc3cc(-c4ccnc(NCCS(C)(=O)=O)c4)ccc32)sc1C(N)=O)c1ccccc1Cl [UNC10225234A] | 97.61 | 12.54 | 121.28 | 93.41 | 11.46 | 68.66 | – | – | – | –
14 | FC(F)(F)c1ccc(-c2cc(-c3c[nH]nc3-c3ccccn3)ccn2)cc1 [UNC10225241A] | 109.99 | 6.11 | – | – | 3.57 | 106.44 | 101.49 | 108.48 | – | –
15 | Cc1ccccc1-c1cc(-c2c[nH]nc2-c2ccccn2)ccn1 [UNC10225243A] | 94.72 | 14.74 | – | – | 4.36 | 90.96 | 62.92 | 82.05 | – | –
16 | CC(=O)c1c(-c2ccncc2)[nH]c(-c2ccncc2)c1C [UNC10225248A] | 107.07 | 12.82 | 75.03 | 97.66 | 5.93 | 71.54 | – | – | – | –
17 | Fc1ccc(-c2nn3c(OCC(F)(F)F)cccc3c2-c2ccncc2)cc1 [UNC10225249A] | 70.84 | 7.21 | – | – | 6.54 | 84.48 | 115.73 | 116.42 | – | –

Row | Compound | AK [1] | TFE3 % [2] [%] | DQ Intensity ([3]; PKIS2 primary screening) | DQ Spot ([3]; PKIS2 primary screening) | TFEB % [4] [%] | Nuclear Count [5] | DQ Intensity [3, 6] | DQ Spot [3, 7] | DQ Intensity [3] | DQ Spot [3]
18 | COc1cc2c(Nc3ccc(NC(=O)c4ccccc4)cc3)ncnc2cc1OCCCN1CCOCC1 [UNC10225250A] | 83.23 | 6.21 | – | – | 4.27 | 140.08 | – | – | 81.48 | 82.98
19 | Cl.c1ccc(-c2n[nH]cc2-c2ccnc(-c3ccc(CN4CCOCC4)cc3)c2)nc1 [UNC10225251A] | 76.02 | 7.21 | – | – | 7.11 | 93.63 | 80.00 | 92.60 | – | –
20 | Cc1ccccc1CC(=O)N1CCc2cc(-c3cn(C)c4ncnc(N)c34)ccc21 [UNC10225254A] | 77.66 | 19.37 | 93.20 | 89.69 | 10.80 | 109.34 | – | – | – | –
21 | CN(C)CCN(C)C(=O)c1cc(-c2ccncc2)c(-c2ccc(Cl)c(O)c2)o1.Cl.Cl [UNC10225256A] | 88.55 | 22.07 | 171.47 | 68.22 | 10.97 | 130.04 | – | – | – | –
22 | O=C(O)C(F)(F)F.O=c1[nH]ccc2nc(N[C@@H]3CCNC3)nc(Nc3cc(Cl)cc(Cl)c3)c12 [UNC10225257A] | 117.20 | 8.28 | 65.99 | 83.26 | 7.01 | 111.57 | – | – | – | –
23 | CC(C)N1CCC(n2cnc(-c3ccc(F)cc3)c2-c2ccnc(N)n2)CC1 [UNC10225258A] | 107.69 | 12.02 | 110.79 | 99.41 | 5.04 | 83.47 | – | – | – | –
24 | NC(=O)c1sc(-n2cnc3ccccc32)cc1OCc1ccccc1F [UNC10225260A] | 77.77 | 15.10 | 138.58 | 126.89 | 10.02 | 92.38 | – | – | – | –
25 | COc1cc2ncnc(Nc3ccc(OCc4ccccc4Br)c(Cl)c3)c2cc1OC.Cl [UNC10225261A] | 120.37 | 8.49 | – | – | 4.00 | 123.73 | 96.30 | 117.72 | – | –
26 | C[C@@H](Oc1cc(-n2cnc3cc(-c4ccncc4)ccc32)sc1C(N)=O)c1ccccc1Cl [UNC10225262A] | 125.08 | 14.34 | 208.10 | 109.28 | 9.74 | 39.15 | – | – | – | –
27 | Cc1ccc(NC(=O)c2cccc(C#N)c2)cc1-c1ccc(C(=O)Nc2ccncc2)cc1 [UNC10225263A] | 76.98 | 18.65 | 106.14 | 106.02 | 13.51 | 75.93 | – | – | – | –
28 | NCCCC(NC(=O)c1cc(Br)c(-c2ccnc3[nH]ccc23)s1)c1ccccc1.O=C(O)C(F)(F)F.O=C(O)C(F)(F)F (stereo not drawn) [UNC10225265A] | 80.18 | 12.13 | – | – | 4.66 | 128.28 | 112.08 | 100.65 | – | –
29 | O=C(O)C(F)(F)F.O=C(O)C(F)(F)F.O=c1[nH]ccc2nc(N[C@@H]3CCCNC3)nc(Nc3ccc(S(=O)(=O)N4CCOCC4)cc3)c12 [UNC10225269A] | 88.07 | 12.97 | 101.94 | 104.22 | 8.33 | 106.18 | – | – | – | –
30 | COc1cc2c(Nc3cccc(NC(=O)c4ccccc4)c3)ncnc2cc1OCCCN1CCOCC1 [UNC10225271A] | 98.71 | 10.54 | – | – | 3.87 | 122.91 | 90.70 | 104.52 | – | –
31 | CNc1nccc(-c2c(-c3ccc(F)cc3)ncn2C2CCN(C)CC2)n1 [UNC10225274A] | 126.95 | 15.08 | 105.02 | 100.15 | 7.89 | 122.34 | – | – | – | –
32 | CS(=O)(=O)CCNCc1nc(-c2ccc3ncnc(Nc4ccc(OCc5ccccc5)c(Cl)c4)c3c2)cs1.Cl [UNC10225279B] | 96.76 | 17.30 | – | – | 5.66 | 87.19 | 82.64 | 92.63 | – | –
33 | Cc1cccc(Nc2nc(N[C@H]3CCCC[C@H]3N)ncc2C(N)=O)c1.Cl [UNC10225280A] | 87.17 | 21.69 | 129.29 | 106.20 | 7.12 | 90.29 | – | – | – | –
34 | Cc1nnc(-c2ccc(C)c(-c3ccc(C(=O)Nc4ccc(NS(C)(=O)=O)cc4)cc3)c2)o1 [UNC10225285A] | 85.18 | 14.74 | 105.08 | 99.25 | 4.26 | 90.38 | – | – | – | –
